Source: patent US12479866B2, “Boron-containing rho kinase inhibitors” (Percipiad, Inc., priority 2019, dated 2025)

Key:
Format in all cases: biochemical
[1] = biological target: T1, ROCK2 (Homo sapiens (Human), UniProt O75116); assay: ROCK2 ADP-Glo kinase enzyme inhibition assay
Description: (§1) We measured ROCK and PKA kinase enzyme activity inhibition by compounds using commercially available ROCK1 (Promega Corporation, cat #V9581), ROCK2 (Promega, cat #V4045), and PKA kinase (Promega, cat #V4247) ADP-Glo™ assay kits. ADP-Glo™ Kinase Assay is a luminescent ADP detection assay that provides a homogeneous method to measure kinase activity by quantifying the amount of ADP produced during a kinase reaction. The assay is performed in two steps. First, after the kinase reaction, an equal volume of ADP-Glo™ Reagent is added to terminate the kinase reaction and deplete the remaining ATP. Second, the Kinase Detection Reagent is added to simultaneously convert ADP to ATP and allow the newly synthesized ATP to be measured using a luciferase/luciferin reaction. The light generated is measured using a luminometer. A complete protocol is included with the kits and is also available at the Promega website. The assay is briefly described below. • 1. Diluted enzyme, substrate, ATP, and compounds (inhibitors) in Kinase Buffer (40 mM Tris, 7.5, 20 mM MgCl2, 0.1 mg/ml BSA, 50 μM DTT). • 2. Added 1 μl of inhibitor, 2 μl of enzyme and 2 μl of substrate/ATP mix to the wells of 384-well low volume nonbinding assay plate A series of three-fold dilution of inhibitor was prepared and assayed for each inhibitor. • 3. Incubated at room temperature for 60 minutes. • 4. Added 5 μl of ADP-Glo™ Reagent. • 5. Incubated at room temperature for 60 minutes. • 6. Added 10 μl of Kinase Detection Reagent • 7. Incubated at room temperature for 30 minutes.
(§2) Recorded luminescence (Integration time 1 second) using a plate-based luminometer.
Calculated Percent Enzyme Activity: First subtract the signal of the negative control (no enzyme and no inhibitor) from each sample's signal. Then use the mean relative light units (RLU) values for the 0% kinase activity (neither inhibitor nor enzyme) and the 100% kinase activity (no compound) to calculate the other percent enzyme activities remaining in the presence of the different dilutions of inhibitor.
Inhibitor stock solutions of 10 mM are made in DMSO and stored at −20° C. Dilutions were made in assay buffer immediately before use.
Target sequence in this assay (O75116 whole entry): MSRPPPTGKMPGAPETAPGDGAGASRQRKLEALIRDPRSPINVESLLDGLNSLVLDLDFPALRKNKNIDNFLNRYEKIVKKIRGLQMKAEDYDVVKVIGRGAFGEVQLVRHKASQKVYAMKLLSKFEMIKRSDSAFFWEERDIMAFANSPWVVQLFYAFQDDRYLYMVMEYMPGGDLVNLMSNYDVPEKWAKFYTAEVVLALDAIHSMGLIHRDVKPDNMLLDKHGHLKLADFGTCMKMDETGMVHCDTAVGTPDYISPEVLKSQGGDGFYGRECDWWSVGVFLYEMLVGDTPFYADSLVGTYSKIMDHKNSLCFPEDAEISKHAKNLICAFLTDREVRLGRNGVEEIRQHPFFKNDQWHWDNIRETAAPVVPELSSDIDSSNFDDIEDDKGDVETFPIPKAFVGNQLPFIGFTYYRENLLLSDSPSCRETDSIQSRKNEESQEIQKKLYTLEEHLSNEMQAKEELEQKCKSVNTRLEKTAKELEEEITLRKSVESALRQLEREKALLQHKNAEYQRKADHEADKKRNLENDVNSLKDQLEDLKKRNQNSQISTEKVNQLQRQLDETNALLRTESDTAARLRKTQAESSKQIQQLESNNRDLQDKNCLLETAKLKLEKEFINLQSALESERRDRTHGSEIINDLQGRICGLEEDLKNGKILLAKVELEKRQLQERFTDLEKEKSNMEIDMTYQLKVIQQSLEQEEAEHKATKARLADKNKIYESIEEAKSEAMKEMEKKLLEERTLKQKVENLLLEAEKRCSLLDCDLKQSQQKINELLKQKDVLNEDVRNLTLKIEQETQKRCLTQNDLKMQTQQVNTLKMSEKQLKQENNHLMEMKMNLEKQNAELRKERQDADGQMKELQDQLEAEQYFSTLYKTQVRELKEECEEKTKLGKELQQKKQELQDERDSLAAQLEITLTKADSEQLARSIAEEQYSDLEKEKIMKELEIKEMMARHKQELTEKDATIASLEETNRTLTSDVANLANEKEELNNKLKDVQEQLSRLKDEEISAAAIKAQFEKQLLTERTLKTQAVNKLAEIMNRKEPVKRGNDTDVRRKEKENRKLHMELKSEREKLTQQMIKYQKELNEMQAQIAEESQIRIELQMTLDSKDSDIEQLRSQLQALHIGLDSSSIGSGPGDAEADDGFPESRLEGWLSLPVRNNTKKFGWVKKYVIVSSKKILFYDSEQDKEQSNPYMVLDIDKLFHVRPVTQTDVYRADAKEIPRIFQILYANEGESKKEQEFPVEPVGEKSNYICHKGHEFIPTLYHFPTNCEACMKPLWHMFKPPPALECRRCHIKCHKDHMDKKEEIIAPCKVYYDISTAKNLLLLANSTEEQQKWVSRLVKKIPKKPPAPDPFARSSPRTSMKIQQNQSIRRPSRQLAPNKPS

[2] = biological target: T2, PKA (Homo sapiens (Human), UniProt P17612); assay: PKA ADP-Glo kinase enzyme inhibition assay; settings: read-out: PKAIC50
Description: as §1, with “Added 1 μl of inhibitor, 2 μl of enzyme and 2 μl of substrate/ATP mix to the wells of 384-well low volume nonbinding assay plate A series of three-fold dilution of inhibitor was prepared and assayed for each inhibitor. • 3. Incubated at room temperature for 60 minutes. • 4. Added 5 μl of ADP-Glo™ Reagent. • 5. Incubated at room temperature for 60 minutes. • 6. Added 10 μl of Kinase Detection Reagent • 7. Incubated at room temperature for 30 minutes.” left out
as §2
Calculated Percent Enzyme Activity: First subtract the signal of the negative control (no enzyme and no inhibitor) from each sample's signal. […]

[3] = biological target: T1, ROCK2; assay: Radioisotope filter binding kinase assay; settings: 10 uM ATP, read-out: IC50 estimates, ROCK2
Description: (§3) Experiment was conducted by Absorption Systems. […] The radioisotope filter binding assay is considered the gold standard for kinase profiling. The assay directly detects the true product without the use of modified substrates, coupling enzymes, or detection antibodies. Compounds are incubated with kinase, substrate, cofactors, and radioisotope-labeled ATP (^33P-Y-ATP). The reaction mixtures are then spotted onto filter papers, which bind the radioisotope-labeled catalytic product. Unreacted phosphate is removed via washing of the filter papers.
(§4) • Prepare kinase-specific substrate in freshly prepared Base Reaction Buffer (20 mM Hepes (pH 7.5), 10 mM MgCl2, 1 mM EGTA, 0.02% Brij35, 0.02 mg/ml BSA, 0.1 mM Na3VO4, 2 mM DTT, 10 µM ATP, and 1% DMSO). • Add kinase enzyme into the substrate solution and gently mix. • Add compounds in DMSO into the kinase reaction mixture by Acoustic technology (Echo550; nanoliter range), incubate for 20 minutes at room temperature. • Add ^33P-ATP (specific activity 10 μCi/μl)) into the reaction mixture to initiate the reaction. • Incubate kinase reaction for 2 hours at room temperature. • Spot reactions onto P81 ion exchange paper. • Detect kinase activity by filter-binding method.
Target sequence in this assay (O75116 whole entry, species assumed): as the sequence (O75116 whole entry) above

[4] = biological target: T2, PKA; assay: Radioisotope filter binding kinase assay; settings: 10 uM ATP, read-out: IC50 estimates, PKA
Description: as §3, §4

[5] = biological target: ROCK1 (Homo sapiens (Human), UniProt Q13464); assay: Radioisotope filter binding kinase assay; settings: 10 uM ATP, read-out: IC50 estimates, ROCK1
Description: as §3, §4

[6] = biological target: PKCtheta (Homo sapiens (Human), UniProt Q04759); assay: Radioisotope filter binding kinase assay; settings: 10 uM ATP, read-out: IC50 estimates, PKCtheta
Chain of PKCtheta (Q04759 whole entry): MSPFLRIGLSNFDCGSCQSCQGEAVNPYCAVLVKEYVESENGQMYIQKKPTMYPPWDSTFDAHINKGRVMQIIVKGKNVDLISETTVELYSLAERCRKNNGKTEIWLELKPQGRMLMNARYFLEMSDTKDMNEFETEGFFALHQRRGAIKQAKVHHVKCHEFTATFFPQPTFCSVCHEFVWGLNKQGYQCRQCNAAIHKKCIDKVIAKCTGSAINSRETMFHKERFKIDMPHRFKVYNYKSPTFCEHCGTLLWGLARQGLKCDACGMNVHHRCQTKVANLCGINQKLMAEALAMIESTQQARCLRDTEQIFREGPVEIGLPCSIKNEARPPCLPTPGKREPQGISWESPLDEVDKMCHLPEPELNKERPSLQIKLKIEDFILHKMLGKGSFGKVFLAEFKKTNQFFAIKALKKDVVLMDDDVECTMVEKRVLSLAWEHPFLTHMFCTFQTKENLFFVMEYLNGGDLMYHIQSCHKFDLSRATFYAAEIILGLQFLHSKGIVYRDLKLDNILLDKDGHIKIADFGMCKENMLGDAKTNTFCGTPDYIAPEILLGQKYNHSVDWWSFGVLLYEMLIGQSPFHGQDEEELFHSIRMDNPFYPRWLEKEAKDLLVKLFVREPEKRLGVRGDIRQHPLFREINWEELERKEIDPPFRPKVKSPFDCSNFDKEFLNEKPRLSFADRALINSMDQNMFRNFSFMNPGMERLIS
Description: as §3, §4

[7] = biological target: MRCKa (Homo sapiens (Human), UniProt Q5VT25); assay: Radioisotope filter binding kinase assay; settings: 10 uM ATP, read-out: IC50 estimates, MRCKa
Chain of MRCKa (Q5VT25 whole entry): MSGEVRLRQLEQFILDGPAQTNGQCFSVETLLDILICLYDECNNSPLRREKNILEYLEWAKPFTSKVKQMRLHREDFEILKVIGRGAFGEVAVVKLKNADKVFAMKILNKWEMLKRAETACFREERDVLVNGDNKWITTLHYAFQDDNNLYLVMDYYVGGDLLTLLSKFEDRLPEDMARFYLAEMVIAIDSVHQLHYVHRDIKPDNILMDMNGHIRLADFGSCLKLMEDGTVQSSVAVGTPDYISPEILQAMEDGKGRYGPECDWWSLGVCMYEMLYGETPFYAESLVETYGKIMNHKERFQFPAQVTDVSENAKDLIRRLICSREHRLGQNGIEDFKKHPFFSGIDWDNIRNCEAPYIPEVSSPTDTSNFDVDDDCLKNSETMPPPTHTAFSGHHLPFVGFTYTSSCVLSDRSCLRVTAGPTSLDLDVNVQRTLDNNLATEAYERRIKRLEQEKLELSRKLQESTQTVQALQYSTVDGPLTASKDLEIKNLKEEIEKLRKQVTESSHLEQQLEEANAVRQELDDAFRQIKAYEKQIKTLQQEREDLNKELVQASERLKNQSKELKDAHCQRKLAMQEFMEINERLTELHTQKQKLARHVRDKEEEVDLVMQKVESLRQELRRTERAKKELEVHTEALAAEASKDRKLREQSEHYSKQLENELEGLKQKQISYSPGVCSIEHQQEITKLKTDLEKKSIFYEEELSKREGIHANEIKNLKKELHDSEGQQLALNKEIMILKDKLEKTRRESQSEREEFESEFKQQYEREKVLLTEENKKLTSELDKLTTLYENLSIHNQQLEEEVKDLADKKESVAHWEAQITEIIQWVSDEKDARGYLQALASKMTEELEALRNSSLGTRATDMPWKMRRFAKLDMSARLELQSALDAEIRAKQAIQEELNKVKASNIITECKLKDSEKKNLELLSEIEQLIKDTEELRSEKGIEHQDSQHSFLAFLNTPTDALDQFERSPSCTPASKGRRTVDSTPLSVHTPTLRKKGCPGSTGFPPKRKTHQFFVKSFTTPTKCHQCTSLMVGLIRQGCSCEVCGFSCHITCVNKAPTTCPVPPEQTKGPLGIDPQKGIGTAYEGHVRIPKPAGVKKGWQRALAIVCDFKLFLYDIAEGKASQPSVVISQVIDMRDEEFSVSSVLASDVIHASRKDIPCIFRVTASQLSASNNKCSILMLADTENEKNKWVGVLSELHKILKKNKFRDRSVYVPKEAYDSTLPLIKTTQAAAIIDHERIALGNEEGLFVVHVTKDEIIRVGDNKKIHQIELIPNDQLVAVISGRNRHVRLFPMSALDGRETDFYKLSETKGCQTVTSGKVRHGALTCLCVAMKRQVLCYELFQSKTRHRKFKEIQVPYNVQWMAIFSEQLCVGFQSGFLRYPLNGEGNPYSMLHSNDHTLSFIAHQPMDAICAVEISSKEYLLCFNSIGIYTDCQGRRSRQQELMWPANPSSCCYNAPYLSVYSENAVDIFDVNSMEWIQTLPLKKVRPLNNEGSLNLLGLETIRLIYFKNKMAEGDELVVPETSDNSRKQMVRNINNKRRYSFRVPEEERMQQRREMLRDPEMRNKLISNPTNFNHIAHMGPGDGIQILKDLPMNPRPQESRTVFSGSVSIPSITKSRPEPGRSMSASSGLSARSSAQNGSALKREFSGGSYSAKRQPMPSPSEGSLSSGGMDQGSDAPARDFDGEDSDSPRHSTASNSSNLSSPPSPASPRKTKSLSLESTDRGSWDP
Description: as §3, §4

For `NCC(C(=O)Nc1ccc2cnccc2c1)c1ccc(CO)cc1` (racemic) [Netarsudil-M1-racemate•2HCl, Netarsdil-M1-(racemic), reference compound], the IC50 ([1]; Exp #2, read-out: ROCK2 IC50(Exp #2)) was 66 nM, the IC50 ([1]; Exp #3, read-out: ROCK2 IC50(Exp #3)) was 15 nM and the IC50 [2] was 23 nM. The IC50 [3] was 6 nM, the IC50 [4] was 12 nM and the IC50 [5] was 15 nM. For the same molecule, the IC50 [6] was 5130 nM and the IC50 [7] was greater than 10000 nM.
